Measurements taken from US20230257364A1, “PYRIDAZINONE-BASED COMPOUNDS AS AXL, C-MET, AND MER INHIBITORS AND METHODS OF USE THEREOF” (CMG Pharmaceutical Co., Ltd., priority 2022, published 2023).
Read-outs that look alike come from different tables or passages of the source.

Legend:
Type in all cases: biochemical
C-MET = C-MET (Homo sapiens, UniProt P08581); assay: Enzymatic kinase assay (ADP-GLO), C-MET
Method: (§1) This example illustrates an enzymatic assay to determine the inhibitory activity of exemplary compounds of Formula (I) in an aspect of the invention.
All the kinase reactions were performed in 5 μL using tyrosine kinase buffer with 0.2 μg/μL poly (Glu4, Tyr1) substrate, 10 μM ATP, serial dilution of the inhibitor, and incubated at room temperature for 60 min. After the indicated incubation times, 5 μL ADP-GLO™ reagent (Promega, Madison, Wis.) was added to the reactions and the plate was incubated at room temperature for 40 min. […] All 384-well assay plates were read using a GLOMAX™ Discover Microplate Luminometer from Promega (Madison, Wis.). To plot, analyze the data and calculate all kinase reaction biochemical values, both Microsoft Excel and Prism from GraphPad 7 Software (La Jolla, Calif.) were used.

AXL = target: T1, AXL (Homo sapiens, UniProt P30530); assay: Enzymatic kinase assay (ADP-GLO), AXL; conditions: 10 μM ATP, poly (Glu4, Tyr1) substrate, 60 min room temperature, luminescence
T1 sequence (P30530 26-894): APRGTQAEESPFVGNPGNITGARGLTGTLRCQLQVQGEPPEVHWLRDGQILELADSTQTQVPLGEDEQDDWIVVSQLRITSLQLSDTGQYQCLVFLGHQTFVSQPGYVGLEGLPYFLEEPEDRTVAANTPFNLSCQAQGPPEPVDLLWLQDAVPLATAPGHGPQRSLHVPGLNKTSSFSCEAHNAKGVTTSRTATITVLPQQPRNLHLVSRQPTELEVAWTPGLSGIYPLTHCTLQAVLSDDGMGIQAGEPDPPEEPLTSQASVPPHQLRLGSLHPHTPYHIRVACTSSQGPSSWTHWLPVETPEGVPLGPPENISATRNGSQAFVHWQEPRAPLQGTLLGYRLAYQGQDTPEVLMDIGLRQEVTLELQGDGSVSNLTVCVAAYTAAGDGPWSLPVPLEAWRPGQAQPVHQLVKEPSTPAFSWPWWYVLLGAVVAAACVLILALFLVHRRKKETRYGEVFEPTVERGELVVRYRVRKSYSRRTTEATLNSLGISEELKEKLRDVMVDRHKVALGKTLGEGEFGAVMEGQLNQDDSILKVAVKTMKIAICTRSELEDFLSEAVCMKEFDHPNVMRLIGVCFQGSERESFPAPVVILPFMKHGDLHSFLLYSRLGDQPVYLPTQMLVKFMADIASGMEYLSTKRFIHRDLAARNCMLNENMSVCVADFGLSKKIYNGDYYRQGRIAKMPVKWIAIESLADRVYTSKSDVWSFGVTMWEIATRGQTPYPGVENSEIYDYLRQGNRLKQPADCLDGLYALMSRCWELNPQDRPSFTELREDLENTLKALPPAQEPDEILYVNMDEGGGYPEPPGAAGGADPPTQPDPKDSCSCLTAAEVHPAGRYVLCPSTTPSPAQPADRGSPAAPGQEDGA
Method: as §1
(§2) All the kinase reactions were performed in 5 μL using tyrosine kinase buffer with 0.2 μg/μL poly (Glu4, Tyr1) substrate, 10 μM ATP, serial dilution of the inhibitor, and incubated at room temperature for 60 min. After the indicated incubation times, 5 μL ADP-GLO™ reagent (Promega, Madison, Wis.) was added to the reactions and the plate was incubated at room temperature for 40 min. Then, 10 μL of kinase detection reagent was added and after an incubation time of 40 min, luminescence was recorded and IC50 values were determined (Table 1). All 384-well assay plates were read using a GLOMAX™ Discover Microplate Luminometer from Promega (Madison, Wis.). To plot, analyze the data and calculate all kinase reaction biochemical values, both Microsoft Excel and Prism from GraphPad 7 Software (La Jolla, Calif.) were used.

MER = target: T2, MER (Homo sapiens, UniProt Q12866); assay: Enzymatic kinase assay (ADP-GLO), MER; conditions: 10 μM ATP, poly (Glu4, Tyr1) substrate, 60 min room temperature, luminescence
T2 sequence (Q12866 21-999): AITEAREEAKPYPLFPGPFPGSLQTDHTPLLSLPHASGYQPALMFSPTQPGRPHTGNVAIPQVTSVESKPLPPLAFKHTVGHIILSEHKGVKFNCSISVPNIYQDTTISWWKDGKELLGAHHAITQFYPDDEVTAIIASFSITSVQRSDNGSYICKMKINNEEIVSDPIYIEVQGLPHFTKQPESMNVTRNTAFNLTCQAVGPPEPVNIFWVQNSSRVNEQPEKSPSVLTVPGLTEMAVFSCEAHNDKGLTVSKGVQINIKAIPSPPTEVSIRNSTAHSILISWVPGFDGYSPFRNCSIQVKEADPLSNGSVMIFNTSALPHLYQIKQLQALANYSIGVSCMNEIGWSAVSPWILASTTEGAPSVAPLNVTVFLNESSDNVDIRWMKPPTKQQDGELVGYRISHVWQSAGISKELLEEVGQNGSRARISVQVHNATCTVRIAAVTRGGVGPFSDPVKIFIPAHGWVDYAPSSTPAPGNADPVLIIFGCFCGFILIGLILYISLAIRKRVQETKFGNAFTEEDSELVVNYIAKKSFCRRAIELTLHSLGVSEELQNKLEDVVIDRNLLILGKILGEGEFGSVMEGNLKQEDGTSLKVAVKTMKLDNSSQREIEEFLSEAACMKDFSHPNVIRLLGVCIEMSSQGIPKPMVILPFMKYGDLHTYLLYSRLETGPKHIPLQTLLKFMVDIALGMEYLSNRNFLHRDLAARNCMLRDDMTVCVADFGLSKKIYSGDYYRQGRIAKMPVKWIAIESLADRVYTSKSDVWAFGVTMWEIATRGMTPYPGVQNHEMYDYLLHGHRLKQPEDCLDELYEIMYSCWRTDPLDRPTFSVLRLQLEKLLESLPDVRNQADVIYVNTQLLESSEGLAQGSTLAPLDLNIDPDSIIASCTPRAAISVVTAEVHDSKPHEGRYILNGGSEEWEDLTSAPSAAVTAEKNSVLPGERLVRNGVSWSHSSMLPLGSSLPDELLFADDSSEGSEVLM
Method: as §1, §2

[1] = 10 μM ATP, poly (Glu4, Tyr1) substrate, 60 min room temperature, luminescence, read-out: Enzymatic assay IC50 (nM) C-MET

C-MET, sequence (P08581 25-1390): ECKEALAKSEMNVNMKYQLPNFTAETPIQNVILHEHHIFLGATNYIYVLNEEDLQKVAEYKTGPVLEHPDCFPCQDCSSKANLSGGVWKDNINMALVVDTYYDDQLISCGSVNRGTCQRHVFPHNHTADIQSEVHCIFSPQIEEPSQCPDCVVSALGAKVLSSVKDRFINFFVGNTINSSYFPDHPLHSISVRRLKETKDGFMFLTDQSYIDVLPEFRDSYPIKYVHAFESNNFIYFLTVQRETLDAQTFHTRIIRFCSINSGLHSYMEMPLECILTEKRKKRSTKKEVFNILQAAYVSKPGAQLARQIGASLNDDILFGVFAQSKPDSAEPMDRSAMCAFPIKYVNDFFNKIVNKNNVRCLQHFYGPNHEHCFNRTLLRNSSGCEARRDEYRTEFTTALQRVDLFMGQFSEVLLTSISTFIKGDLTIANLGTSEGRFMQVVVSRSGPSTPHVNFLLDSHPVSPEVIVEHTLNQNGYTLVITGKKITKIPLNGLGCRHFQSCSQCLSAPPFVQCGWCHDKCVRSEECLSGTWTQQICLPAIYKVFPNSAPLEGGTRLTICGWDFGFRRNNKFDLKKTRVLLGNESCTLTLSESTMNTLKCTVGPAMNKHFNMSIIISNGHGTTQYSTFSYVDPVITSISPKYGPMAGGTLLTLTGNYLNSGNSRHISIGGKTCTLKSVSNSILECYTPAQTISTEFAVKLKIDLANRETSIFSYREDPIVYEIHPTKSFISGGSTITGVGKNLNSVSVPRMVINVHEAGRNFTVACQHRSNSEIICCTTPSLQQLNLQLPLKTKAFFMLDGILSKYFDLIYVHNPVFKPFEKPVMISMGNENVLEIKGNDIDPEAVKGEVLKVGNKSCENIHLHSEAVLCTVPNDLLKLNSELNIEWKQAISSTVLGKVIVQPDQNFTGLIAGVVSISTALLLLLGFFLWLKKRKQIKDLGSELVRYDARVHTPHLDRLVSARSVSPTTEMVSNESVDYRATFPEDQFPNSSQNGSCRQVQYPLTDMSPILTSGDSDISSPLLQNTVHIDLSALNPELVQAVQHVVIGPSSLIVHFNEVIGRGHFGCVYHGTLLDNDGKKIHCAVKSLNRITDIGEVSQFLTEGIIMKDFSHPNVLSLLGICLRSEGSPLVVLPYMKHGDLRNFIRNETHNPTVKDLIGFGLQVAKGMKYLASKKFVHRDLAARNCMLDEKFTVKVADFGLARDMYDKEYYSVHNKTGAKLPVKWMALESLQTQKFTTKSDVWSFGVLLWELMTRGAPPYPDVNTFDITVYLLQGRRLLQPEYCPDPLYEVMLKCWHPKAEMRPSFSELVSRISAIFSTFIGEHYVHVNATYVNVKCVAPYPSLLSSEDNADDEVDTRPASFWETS

SMILES | IC50 (C-MET; [1]) [nM] | IC50 (AXL) [nM] | IC50 (MER) [nM] | IC50 (C-MET) [nM]
Nc1nccc(Oc2ccc(NC(=O)c3ccnn(-c4ccc(F)cc4)c3=O)cc2F)c1-c1ccc(Oc2ccccc2)cc1 [Example 20, N-(4-(2-amino-3-(4-phenoxyphenyl)pyridin-4-yloxy)-3-fluorophenyl)-2-4-(fluorophenyl)-3-oxo-2,3-dihydropyridazine-4-carboxamide] | > 1000 | < 1000 | < 1000 | –
CCCn1cc(-c2c(Oc3ccc(NC(=O)c4ccnn(-c5ccc(F)cc5)c4=O)cc3F)ccnc2N)cn1 [Example 21, N-(4-(2-amino-3-(1-propyl-1H-pyrazol-4-yl)pyridin-4-yloxy)-3-fluorophenyl)-2-(4-fluorophenyl)-3-oxo-2,3-dihydropyridazine-4-carboxamide] | > 1000 | < 10 | < 100 | –
CC(C)(C#Cc1c(Oc2ccc(NC(=O)c3ccnn(-c4ccc(F)cc4)c3=O)cc2F)ccnc1N)N1CCNCC1 [Example 22, N-(4-(2-amino-3-(3-methyl-3-(piperazin-1-yl)but-1-ynyl)pyridin-4-yloxy)-3-fluorophenyl)-2-(4-fluorophenyl)-3-oxo-2,3-dihydropyridazine-4-carboxamide] | < 100 | < 10 | < 100 | –
COCCN1CCN(C(C)(C)C#Cc2c(Oc3ccc(NC(=O)c4ccnn(-c5ccc(F)cc5)c4=O)cc3F)ccnc2N)CC1 [Example 23, N-(4-(2-amino-3-(3-(4-(2-methoxyethyl)piperazin-1-yl)-3-methylbut-1-ynyl)pyridine-4-yloxy)-3-fluorophenyl)-2-(4-fluorophenyl)-3-oxo-2,3-dihydropyridazine-4-carboxamide] | < 100 | < 10 | < 100 | –
Nc1nccc(Oc2ccc(NC(=O)c3ccnn(-c4ccc(F)cc4)c3=O)cc2F)c1C#CC1CCNCC1 [Example 25, N-(4-(2-amino-3-(piperidin-4-ylethynyl)pyridine-4-yloxy)-3-fluorophenyl)-2-(4-fluorophenyl)-3-oxo-2,3-dihydropyridazine-4-carboxamide] | < 10 | < 10 | > 1000 | –
CN1CCC(C#Cc2c(Oc3ccc(NC(=O)c4ccnn(-c5ccc(F)cc5)c4=O)cc3F)ccnc2N)CC1 [Example 26, N-(4-(2-amino-3-((1-methylpiperidin-4-yl)ethynyl)pyridin-4-yloxy)-3-fluorophenyl)-2-(4-fluorophenyl)-3-oxo-2,3-dihydropyridazine-4-carboxamide] | < 10 | < 10 | > 1000 | –
COCCN1CCC(C#Cc2c(Oc3ccc(NC(=O)c4ccnn(-c5ccc(F)cc5)c4=O)cc3F)ccnc2N)CC1 [Example 27, N-(4-(2-amino-3-((1-(2-methoxyethyl)piperidin-4-yl)ethynyl)pyridin-4-yloxy)-3-fluorophenyl)-2-(4-fluorophenyl)-3-oxo-2,3-dihydropyridazine-4-carboxamide] | < 10 | < 10 | < 10 | –
CC(C)(C#Cc1c(Oc2ccc(NC(=O)c3ccnn(-c4ccc(F)cc4)c3=O)cc2F)ccnc1N)N1CCOCC1 [Example 28, N-(4-(2-amino-3-(3-methyl-3-morpholinobut-1-ynl)pyridin-4-yloxy)-3-fluorophenyl)-2-(4-fluorophenyl)-3-oxo-2,3-dihydropyridazine-4-carboxamide] | < 10 | < 10 | < 100 | –
CC(C)N1CCC(CC#Cc2c(Oc3ccc(NC(=O)c4ccnn(-c5ccc(F)cc5)c4=O)cc3F)ccnc2N)CC1 [Example 32, N-(4-(2-amino-3-(3-(1-isopropylpiperidin-4-yl)prop-1-ynyl)pyridin-4-yloxy)-3-fluorophenyl)-2-(4-fluorophenyl)-3-oxo-2,3-dihydropyridazine-4-carboxamide] | < 100 | < 100 | < 100 | –

More lines, now with the values ahead:

IC50 (C-MET; [1]) [nM] | IC50 (AXL) [nM] | IC50 (MER) [nM] | IC50 (C-MET) [nM] | SMILES
< 100 | < 10 | < 10 | – | COCCN1CCN(CC#Cc2c(Oc3ccc(NC(=O)c4ccnn(-c5ccc(F)cc5)c4=O)cc3F)ccnc2N)CC1 [Example 24]
< 10 | < 10 | < 10 | – | CN1CCN(CC#Cc2c(Oc3ccc(NC(=O)c4ccnn(-c5ccc(F)cc5)c4=O)cc3F)ccnc2N)CC1 [Example 29, N-(4-(2-amino-3-(3-(4-methylpiperazin-1-yl)prop-1-ynyl)pyridin-4-yloxy)-3-fluorophenyl)-2-(4-fluorophenyl)-3-oxo-2,3-dihydropyridazine-4-carboxamide]
– | < 10 | < 10 | < 10 | Nc1nccc(Oc2ccc(NC(=O)c3ccnn(-c4ccc(F)cc4)c3=O)cc2F)c1C#CCC1CCNCC1 [Example 30, N-(4-(2-amino-3-(3-(piperidin-4-yl)prop-1-ynyl)pyridin-4-yloxy)-3-fluorophenyl)-2-(4-fluorophenyl)-3-oxo-2,3-dihydropyridazine-4-carboxamide]
< 10 | < 100 | < 100 | – | COCCN1CCC(CC#Cc2c(Oc3ccc(NC(=O)c4ccnn(-c5ccc(F)cc5)c4=O)cc3F)ccnc2N)CC1 [Example 31, N-(4-(2-amino-3-(3-(1-(2-methoxyethyl)piperidin-4-yl)prop-1-ynyl)pyridin-4-yloxy)-3-fluorophenyl)-2-(4-fluorophenyl)-3-oxo-2,3-dihydropyridazine-4-carboxamide]
